Format in all cases: functional, organism-based
In experiment [1] the test system is Plasmodium falciparum. Kind of experiment: Antiplasmodial activity against chloroquine-sensitive Plasmodium falciparum 3D7 infected in human erythrocyte incubated for 72 hrs by SYBR green I staining based fluorescence assay. To be noted: 3D7, Erythrocyte.
The test system of experiment [2] is Plasmodium falciparum. Kind of experiment: Antimalarial activity against chloroquine-resistant Plasmodium falciparum VNS measured after 48 hrs.
Experiment [3] has as its system Plasmodium falciparum. Nature of the experiment: Antimalarial activity against chloroquine-sensitive Plasmodium falciparum FCC1 measured after 48 hrs. As to conditions: FCC1, 48 h.
In experiment [4] the test system is Plasmodium falciparum. Kind of experiment: Antiplasmodial activity against Plasmodium falciparum D6 infected in human Erythrocyte measured after 72 hrs by SYBR green fluorescence dye based microplate reader analysis.
The test system of experiment [5] is Plasmodium falciparum. Kind of experiment: Antiplasmodial activity against Plasmodium falciparum Tm90-C2B infected in human Erythrocyte measured after 72 hrs by SYBR green fluorescence dye based microplate reader analysis.
For experiment [6], the system named is Plasmodium falciparum. Nature of the experiment: Antiplasmodial activity against Plasmodium falciparum Dd2 infected in human Erythrocyte measured after 72 hrs by SYBR green fluorescence dye based microplate reader analysis.
Another experiment deals with Plasmodium yoelii yoelii. Nature of the experiment: Antimalarial activity against hepatic stage Plasmodium yoelii yoelii 265 BY for 48 hrs with media renew every 24 hrs.
The subject of experiment [7] is Plasmodium falciparum. Nature of the experiment: Antimalarial activity against blood stage chloroquine-sensitive Plasmodium falciparum 3D7 infected in erythrocytes assessed as reduction in parasite growth preincubated for 72 hrs followed by addition of [3H]Hypoxanthine and measured after 24 hrs by liquid scintillation counting method. As to conditions: 3D7, Erythrocyte.

For experiment [8], the system named is Plasmodium falciparum. Kind of experiment: Antimalarial activity against blood stage chloroquine-sensitive Plasmodium falciparum NF54-R infected in erythrocytes assessed as reduction in parasite growth preincubated for 72 hrs followed by addition of [3H]Hypoxanthine and measured after 24 hrs by liquid scintillation counting method. As to conditions: Erythrocyte.

For experiment [9], the system named is Plasmodium falciparum. Kind of experiment: Antimalarial activity against Antimalarial activity against chloroquine-sensitive Plasmodium falciparum FCR-3.

Values after ≈ are worked out from the molar mass of the structure shown.

The values below come from ChEMBL document CHEMBL5244209, “Antiplasmodial and antimalarial activities of quinolone derivatives: An overview” (Eur J Med Chem, 2018).

Compound `C=CC1CC2CCC1CC2[C@H](OC(=O)[C@@H](NC(=O)C1=CN(CC)C2C=C3OCOC3=CC2C1=O)C(C)C)c1cccc2ccc(OC)cc12` (some centres not stated) showed an IC50 with Plasmodium falciparum [1] of 0.183 µM.

As for `CNn1cc(C(=O)O)c(=O)c2cc(F)c(N3CCN(C)CC3)cc21` [AMIFLOXACIN], the figures for the IC50 in the experiment with Plasmodium falciparum [2] and with Plasmodium falciparum [3] were 870 µM and 550 µM, respectively.

For the compound `C[C@@H]1CC[C@H]2[C@@H](C)C(=O)O[C@@H]3O[C@@]4(C)CC[C@@H]1[C@]32OO4` [ARTEMISININ], the 50% inhibitory concentration (IC50) with Plasmodium falciparum [4] stood at 0.00081 µM; in the experiment with Plasmodium falciparum [5], 0.0021 µM; with Plasmodium falciparum [6], 0.0006 µM.

As for `O=C1C(O)=C([C@H]2CC[C@H](c3ccc(Cl)cc3)CC2)C(=O)c2ccccc21` [ATOVAQUONE], the half-maximal inhibitory concentration (IC50) turned out to be 0.0003 µM with Plasmodium falciparum [4], 5.09 µM in the experiment on Plasmodium falciparum [5] and 0.0005 µM in the experiment on Plasmodium falciparum [6].

Consider `CCn1nc(C(=O)O)c(=O)c2cc3c(cc21)OCO3` [CINOXACIN], for which the IC50 in the experiment with Plasmodium yoelii yoelii was found to be 36.3 µg/mL (≈ 138 µM); in the experiment on Plasmodium falciparum [7], 118 µg/mL (≈ 451 µM); with Plasmodium falciparum [8], 28.5 µg/mL (≈ 109 µM).

With `NC1CCN(c2c(F)cc3c(=O)c(C(=O)O)cn(C4CC4)c3c2Cl)C1` (configuration not stated) [CLINAFLOXACIN], the IC50 in the experiment with Plasmodium yoelii yoelii worked out at 90.2 µg/mL (≈ 247 µM); in the experiment with Plasmodium falciparum [7], 13.7 µg/mL (≈ 37.5 µM); with Plasmodium falciparum [8], 3.3 µg/mL (≈ 9.02 µM).

As to `CCn1cc(C(=O)O)c(=O)c2cc(F)c(N3CCNCC3)nc21` [ENOXACIN], the concentration for half-maximal inhibition (IC50) in the experiment with Plasmodium falciparum [2] is 990 µM; with Plasmodium yoelii yoelii, greater than 100 µg/mL; in the experiment on Plasmodium falciparum [7] it was 38.8 µg/mL (≈ 121 µM); in the experiment on Plasmodium falciparum [3], 800 µM; in the experiment on Plasmodium falciparum [8] it was 1.4 µg/mL (≈ 4.37 µM).

As for `CN1CCN(c2c(F)cc3c(=O)c(C(=O)O)cn(CCF)c3c2F)CC1` [FLEROXACIN], the half-inhibitory concentration (IC50) with Plasmodium yoelii yoelii is greater than 100 µg/mL; with Plasmodium falciparum [7], 34.6 µg/mL (≈ 93.7 µM); in the experiment on Plasmodium falciparum [8] it was 12.9 µg/mL (≈ 34.9 µM).

In the case of `CC1CCc2cc(F)cc3c(=O)c(C(=O)O)cn1c23` (configuration not stated) [FLUMEQUINE], the results for the IC50 with Plasmodium yoelii yoelii, in the experiment with Plasmodium falciparum [7] and with Plasmodium falciparum [8] were greater than 100 µg/mL, 38.3 µg/mL (≈ 147 µM) and 14.1 µg/mL (≈ 54 µM), respectively.

With `COc1c(N2CCNC(C)C2)c(F)cc2c(=O)c(C(=O)O)cn(C3CC3)c12` (configuration not stated) [GATIFLOXACIN], the figures for the IC50 in the experiment on Plasmodium yoelii yoelii, in the experiment on Plasmodium falciparum [7] and with Plasmodium falciparum [8] were greater than 100 µg/mL, 34.8 µg/mL (≈ 92.7 µM) and 10.9 µg/mL (≈ 29 µM), respectively.

Turning to `Cc1c(F)c(N2CCNC(C)C2)cc2c1c(=O)c(C(=O)O)cn2C1CC1` (configuration not stated) [GREPAFLOXACIN], the IC50 in the experiment with Plasmodium yoelii yoelii came out at 4.4 µg/mL (≈ 12.2 µM); in the experiment with Plasmodium falciparum [7], 4.5 µg/mL (≈ 12.5 µM); in the experiment with Plasmodium falciparum [8], 3.1 µg/mL (≈ 8.63 µM).

As to `CCn1cc(C(=O)O)c(=O)c2cc(F)c(-n3cccc3)cc21` [IRLOXACIN], the figures for the 50% inhibitory concentration (IC50) in the experiment on Plasmodium yoelii yoelii, with Plasmodium falciparum [7] and in the experiment with Plasmodium falciparum [8] were greater than 100 µg/mL, 49.4 µg/mL (≈ 165 µM) and 10.5 µg/mL (≈ 35 µM), respectively.

On to `C[C@H]1COc2c(N3CCN(C)CC3)c(F)cc3c(=O)c(C(=O)O)cn1c23.C[C@H]1COc2c(N3CCN(C)CC3)c(F)cc3c(=O)c(C(=O)O)cn1c23.O` [LEVOFLOXACIN], for which the 50% inhibitory concentration (IC50) in the experiment with Plasmodium falciparum [1] is greater than 20 µM; in the experiment on Plasmodium yoelii yoelii, greater than 100 µg/mL; in the experiment on Plasmodium falciparum [7], 112 µg/mL; with Plasmodium falciparum [8] it was 40.3 µg/mL.

With `CN1CCN(c2c(F)cc3c(=O)c(C(=O)O)cn4c3c2OCN4C)CC1` [MARBOFLOXACIN], the half-maximal inhibitory concentration (IC50) in the experiment with Plasmodium yoelii yoelii is greater than 100 µg/mL; in the experiment with Plasmodium falciparum [7] it was 30.8 µg/mL (≈ 85 µM); in the experiment on Plasmodium falciparum [8], 21.6 µg/mL (≈ 59.6 µM).

`COc1c(N2C[C@@H]3CCCN[C@@H]3C2)c(F)cc2c(=O)c(C(=O)O)cn(C3CC3)c12` [MOXIFLOXACIN]: the IC50 in the experiment on Plasmodium yoelii yoelii is greater than 100 µg/mL; in the experiment on Plasmodium falciparum [7], 44.8 µg/mL (≈ 112 µM); with Plasmodium falciparum [8], 18 µg/mL (≈ 44.8 µM).

As for `CCn1cc(C(=O)O)c(=O)c2ccc(C)nc21` [NALIDIXIC ACID], the IC50 was greater than 20 µM in the experiment on Plasmodium falciparum [1], greater than 100 µg/mL in the experiment on Plasmodium yoelii yoelii, 117 µg/mL (≈ 502 µM) in the experiment on Plasmodium falciparum [7] and 59.1 µg/mL (≈ 254 µM) in the experiment on Plasmodium falciparum [8].

`CCn1cc(C(=O)O)c(=O)c2cc3c(cc21)OCO3` [OXOLINIC ACID]: the IC50 with Plasmodium falciparum [1] is greater than 10 µM; in the experiment with Plasmodium yoelii yoelii it was greater than 100 µg/mL; in the experiment on Plasmodium falciparum [7] it was 130 µg/mL (≈ 496 µM); with Plasmodium falciparum [8] it was 42.2 µg/mL (≈ 162 µM).

Regarding `CCn1cc(C(=O)O)c(=O)c2cc(F)c(N3CCN(C)CC3)cc21` [PEFLOXACIN], the half-inhibitory concentration (IC50) in the experiment with Plasmodium falciparum [2] was found to be 850 µM; in the experiment with Plasmodium yoelii yoelii it was 86.3 µg/mL (≈ 259 µM); with Plasmodium falciparum [7] it was 83.7 µg/mL (≈ 251 µM); in the experiment with Plasmodium falciparum [3], 1300 µM; with Plasmodium falciparum [8] it was 6.5 µg/mL (≈ 19.5 µM).

With `CCn1cc(C(=O)O)c(=O)c2cnc(N3CCNCC3)nc21` [PIPEMIDIC ACID], the IC50 is greater than 100 µg/mL with Plasmodium yoelii yoelii, 40.9 µg/mL (≈ 135 µM) in the experiment with Plasmodium falciparum [7] and 10.5 µg/mL (≈ 34.6 µM) with Plasmodium falciparum [8].

For `CCn1cc(C(=O)O)c(=O)c2cnc(N3CCCC3)nc21` [PIROMIDIC ACID], the IC50 with Plasmodium yoelii yoelii came to 21.6 µg/mL (≈ 74.9 µM); in the experiment on Plasmodium falciparum [7], 41.4 µg/mL (≈ 144 µM); in the experiment with Plasmodium falciparum [8], 14.4 µg/mL (≈ 49.9 µM).

As to `C=C[C@H]1CN2CC[C@H]1C[C@H]2[C@H](O)c1ccnc2ccc(OC)cc12` [QUININE], the IC50 in the experiment with Plasmodium falciparum [1] is 0.018 µM; in the experiment on Plasmodium falciparum [9], 0.11 µM.

As for `CCn1cc(C(=O)O)c(=O)c2ccc(-c3ccncc3)cc21` [ROSOXACIN], the values for the IC50 with Plasmodium falciparum [7] and with Plasmodium falciparum [8] were 87.9 µg/mL (≈ 299 µM) and 10.6 µg/mL (≈ 36 µM), respectively.

With `CN1CCN(c2c(F)cc3c(=O)c(C(=O)O)cn4c3c2SCC4)CC1` [RUFLOXACIN], the IC50 in the experiment on Plasmodium yoelii yoelii is 47.8 µg/mL (≈ 132 µM); in the experiment with Plasmodium falciparum [7], 81.9 µg/mL (≈ 225 µM); with Plasmodium falciparum [8], 30.1 µg/mL (≈ 82.8 µM).

With `C[C@@H]1CN(c2c(F)c(N)c3c(=O)c(C(=O)O)cn(C4CC4)c3c2F)C[C@H](C)N1` [SPARFLOXACIN], the half-maximal inhibitory concentration (IC50) in the experiment on Plasmodium yoelii yoelii stood at 53 µg/mL (≈ 135 µM); in the experiment with Plasmodium falciparum [7], 143 µg/mL (≈ 364 µM); in the experiment with Plasmodium falciparum [8] it was 73.9 µg/mL (≈ 188 µM).

On to `CC1CN(c2cc3c(cc2F)c(=O)c(C(=O)O)cn3-c2ccc(F)cc2F)CCN1` (configuration not stated) [TEMAFLOXACIN], for which the concentration for half-maximal inhibition (IC50) in the experiment on Plasmodium yoelii yoelii came out at 72.2 µg/mL (≈ 173 µM); in the experiment with Plasmodium falciparum [7], 34.9 µg/mL (≈ 83.6 µM); in the experiment with Plasmodium falciparum [8] it was 14.1 µg/mL (≈ 33.8 µM).

Usually IC50 stands for the point on the concentration scale where inhibition reaches its midpoint.
